For 32 compounds, IC50 results are on record in patent US20170291890A1 (Epizyme, Inc., priority 2014, published 2017).

Usually IC50 stands for the concentration that inhibits the measured activity by half.

This experiment has as its target T1, KDM5A (Homo sapiens, UniProt P29375).
T1 construct: C-terminal FLAG-tagged KDM5A^1-1090 was purchased from BPS Biosciences; FLAG (C); purchased BPS Biosciences
T1 sequence (P29375 1-1090): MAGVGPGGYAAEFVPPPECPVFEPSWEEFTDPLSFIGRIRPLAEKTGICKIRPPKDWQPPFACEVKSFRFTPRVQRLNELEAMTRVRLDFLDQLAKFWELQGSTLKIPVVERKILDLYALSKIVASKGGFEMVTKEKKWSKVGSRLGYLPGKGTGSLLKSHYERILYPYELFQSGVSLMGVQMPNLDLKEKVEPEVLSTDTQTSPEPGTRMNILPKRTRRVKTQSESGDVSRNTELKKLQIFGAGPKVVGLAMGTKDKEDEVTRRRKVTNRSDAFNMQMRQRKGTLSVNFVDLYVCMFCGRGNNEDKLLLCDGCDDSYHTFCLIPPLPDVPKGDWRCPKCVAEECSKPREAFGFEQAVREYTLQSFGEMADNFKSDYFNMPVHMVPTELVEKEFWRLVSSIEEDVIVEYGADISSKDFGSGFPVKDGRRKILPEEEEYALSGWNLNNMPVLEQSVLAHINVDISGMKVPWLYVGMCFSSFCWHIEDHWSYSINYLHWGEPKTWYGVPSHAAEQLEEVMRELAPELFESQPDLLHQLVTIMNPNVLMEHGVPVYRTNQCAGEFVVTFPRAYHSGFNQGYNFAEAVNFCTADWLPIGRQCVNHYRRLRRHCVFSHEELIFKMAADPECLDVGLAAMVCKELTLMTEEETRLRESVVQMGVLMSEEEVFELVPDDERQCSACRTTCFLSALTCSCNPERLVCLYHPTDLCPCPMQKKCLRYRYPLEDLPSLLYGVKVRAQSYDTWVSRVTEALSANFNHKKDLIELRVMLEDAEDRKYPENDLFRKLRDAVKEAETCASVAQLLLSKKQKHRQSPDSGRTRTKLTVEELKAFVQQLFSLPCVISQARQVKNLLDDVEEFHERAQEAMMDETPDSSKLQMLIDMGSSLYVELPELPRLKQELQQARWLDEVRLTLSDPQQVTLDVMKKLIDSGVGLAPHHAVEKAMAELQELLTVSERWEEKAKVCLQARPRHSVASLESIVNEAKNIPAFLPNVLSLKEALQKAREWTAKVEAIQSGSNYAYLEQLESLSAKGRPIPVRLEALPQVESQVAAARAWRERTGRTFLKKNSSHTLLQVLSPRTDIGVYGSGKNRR
As to the kind of experiment: KDM5A Assay (SAMDI mass spectrometry demethylase assay). The note with it: C-terminal FLAG-tagged KDM5A 1-1090; class symbols; read-out: 5A IC50. The class given is biochemical. As to the method: C-terminal FLAG-tagged KDM5A^1-1090 was purchased from BPS Biosciences. Peptides were synthesized by BioPeptide and all other reagents were purchased from Sigma-Aldrich at the highest level of purity possible. Assays were performed in a 50 μL volume in 384-well V-bottom polypropylene microplates (Greiner) at 25° C. Optimized 1× assay buffer was 50 mM HEPES (pH=8.0), 100 μM sodium ascorbate, 20 mM NaCl, 10 μM ammonium iron sulfate, 1 mM tris(2-carboxyethyl)phosphine (TCEP), 0.002% Tween-20, and 0.005% BSG. For compound screening, 35 μL of […] (final concentration, f.c.=20 nM) was added using a Multidrop Combi and preincubated with 1 μL of test compound (f.c.=10 μM) for 30 minutes and subsequently 15 μL of peptide with the following sequence NH2-ART[Kme-3]QTARKSTGGKA[K-Ahx-Biot]-amide (f.c.=250 nM) and 2-oxoglutarate (f.c.=15 μM) was added by Multidrop Combi to begin the reaction. Reactions proceeded for 150 minutes and were stopped by the addition of 5 μL of formic acid (f.c.=0.5%) using a Multidrop Combi and then analyzed by SAMDI Tech Inc.
SAMDI Tech analyzed all reactions using self-assembled monoloayer desorption/ionization technology as previously described (Gerard-Levin Z A, Scholle M D, Eisenberg A H, et al.: High-throughput screening of small molecule libraries using SAMDI mass spectrometry. ACS Comb Sci 2011; 13:347-350). Briefly, a 2 μL sample of the stopped demethylase reactions were transferred to a SAMDI array coated with 384 biotin-neutravidin spots using a 384-channel pipet station. The SAMDI arrays were incubated for 1 h in a humidified chamber, followed by washing of the surface with deionized ultra-filtered water (DIUF) and drying under nitrogen. A matrix of 30 mg/ml 2′,4′,6′-Trihydroxyacetophenone monohydrate (THAP) in acetone was applied using a TPP Mosquito 1.2 μL tip by dispensing 50 nL on each of the 384 spots on the array. SAMDI-MS was run using acquisition method ReflectorPositiveUTX. The % conversion of substrate to product was calculated using the AUC of the substrate and product peptide peaks.
An IC50 value was determined by contacting various concentrations of a test compound with one of the KDM4A, KDM4C or KDMSC enzyme constructs and plotting a dose-response curve which associates the amount of inhibition of the enzyme relative to the concentration of the test compound. From the curve, the IC50 value (which represents the concentration of the test compound necessary to inhibit maximal enzymatic activity by 50%) was determined. Additionally, the slope of the linear range of the plotted curve, which indicates the speed with which the curve rises between the minimum and maximum, was calculated.

On to `Cc1nn(C2CCCNCC2)cc1Nc1cnccc1C(=O)O` (single isomer, unassigned) [Compound 114], for which the IC50 fell in the range of 100 to 1000 nM.

`Cc1nn(C2CCCNCC2)cc1Nc1cnccc1C(=O)O` (single isomer, unassigned) [Compound 116]: the IC50 lay in the range of 100 to 1000 nM. Consider `Cn1ncc(-c2ccccc2)c1Nc1cnccc1C(=O)O` [Compound 1], for which the IC50 lay in the range of 1000 to 10000 nM. Regarding `Cc1cn(-c2ccccc2)c(Nc2cnccc2C(=O)O)n1` [Compound 2], the 50% inhibitory concentration (IC50) lay in the range of 1000 to 10000 nM. For `Cn1cc(-c2ccccc2)c(Nc2cnccc2C(=O)O)n1` [Compound 3], the IC50 lay within 1000 to 10000 nM. In the case of `Cn1nc(-c2ccccc2)cc1Nc1cnccc1C(=O)O` [Compound 6], the IC50 lay within 1 to 100 nM.

Regarding `Cn1cc(-c2ccc(F)cc2)c(Nc2cnccc2C(=O)O)n1` [Compound 7, 3-((4-(4-Fluorophenyl)-1-methyl-1H-pyrazol-3-yl)amino) isonicotinic acid], the IC50 was 100 to 1000 nM. `Cn1ncc(-c2ccc(F)cc2)c1Nc1cnccc1C(=O)O` [Compound 8, 3-((4-(4-fluorophenyl)-1-methyl-1H-pyrazol-5-yl)amino) isonicotinic acid]: the IC50 fell in the range of 10000 to 100000 nM.

Turning to `Cn1cc(-c2cccc(F)c2)c(Nc2cnccc2C(=O)O)n1` [Compound 9, 3-((4-(3-Fluorophenyl)-1-methyl-1H-pyrazol-3-yl)amino) isonicotinic acid], the IC50 lay within 100 to 1000 nM. Turning to `Cn1ncc(-c2cccc(F)c2)c1Nc1cnccc1C(=O)O` [Compound 10, 3-((4-(3-Fluorophenyl)-1-methyl-1H-pyrazol-5-yl)amino) isonicotinic acid], the IC50 fell in the range of 10000 to 100000 nM. `Cn1cc(-c2ccccc2F)c(Nc2cnccc2C(=O)O)n1` [Compound 11, 3-((4-(2-Fluorophenyl)-1-methyl-1H-pyrazol-3-yl)amino) isonicotinic acid]: the IC50 fell in the range of 1000 to 10000 nM. For the compound `Cn1ncc(-c2ccccc2F)c1Nc1cnccc1C(=O)O` [Compound 12, 3-((4-(2-fluorophenyl)-1-methyl-1H-pyrazol-5-yl)amino) isonicotinic acid], the IC50 is 100 to 1000 nM. Take `Cn1cc(Nc2cnccc2C(=O)O)c(-c2ccccc2)n1` [Compound 13, 3-((1-methyl-3-phenyl-1H-pyrazol-4-yl)amino) isonicotinic acid]: the IC50 lay in the range of 1000 to 10000 nM. On to `O=C(O)c1ccncc1Nc1nn(CCN2CCC(F)(F)CC2)cc1-c1ccccc1` [Compound 14, 3-((1-(2-(4,4-Difluoropiperidin-1-yl)ethyl)-4-phenyl-1H-pyrazol-3-yl)amino)isonicotinic acid], for which the IC50 lay in the range of 1 to 100 nM. For `O=C(O)c1ccncc1Nc1c(-c2ccccc2)cnn1CCN1CCC(F)(F)CC1` [Compound 15, 3-((1-(2-(4,4-difluoropiperidin-1-yl)ethyl)-4-phenyl-1H-pyrazol-5-yl)amino)isonicotinic acid], the IC50 lay within 1000 to 10000 nM.

For `Cc1n[nH]c(C)c1Nc1cnccc1C(=O)O` [Compound 16, 3-((3,5-Dimethyl-1H-pyrazol-4-yl)amino)isonicotinic acid], the IC50 fell in the range of 10000 to 100000 nM. For the compound `O=C(O)c1ccncc1Nc1cn(CCN2CCC(F)(F)CC2)nc1-c1ccccc1` [Compound 17, 3-((1-(2-(4,4-Difluoropiperidin-1-yl)ethyl)-3-phenyl-1H-pyrazol-4-yl)amino)isonicotinic acid], the IC50 is 100 to 1000 nM. Consider `O=C(O)c1ccncc1Nc1cnn(CCN2CCC(F)(F)CC2)c1-c1ccccc1` [Compound 18, 3-((1-(2-(4,4-difluoropiperidin-1-yl)ethyl)-5-phenyl-1H-pyrazol-4-yl)amino)isonicotinic acid], for which the IC50 is 1000 to 10000 nM. As for `Cc1nn(-c2ccccc2)cc1Nc1cnccc1C(=O)O` [Compound 19, 3-((3-Methyl-1-phenyl-1H-pyrazol-4-yl)amino)isonicotinic acid], the IC50 is 1 to 100 nM.

As to `Cc1c(Nc2cnccc2C(=O)O)cnn1-c1ccccc1` [Compound 20, 3-((5-methyl-1-phenyl-1H-pyrazol-4-yl)amino)isonicotinic acid], the IC50 lay within 1000 to 10000 nM. With `O=C(O)c1ccncc1Nc1cc(-c2ccccc2)nn1-c1ccccc1` [Compound 21, 3-((1,3-Diphenyl-1H-pyrazol-5-yl)amino)isonicotinic acid], the IC50 is 100 to 1000 nM.

As for `CC(C)n1nc(-c2ccccc2)cc1Nc1cnccc1C(=O)O` [Compound 22, 3-((1-Isopropyl-3-phenyl-1H-pyrazol-5-yl)amino)isonicotinic acid], the 50% inhibitory concentration (IC50) fell in the range of 100 to 1000 nM. With `O=C(O)c1ccncc1Nc1cc(-c2ccccc2)nn1C1CCOCC1` [Compound 23, 3-((3-Phenyl-1-(tetrahydro-2H-pyran-4-yl)-1H-pyrazol-5-yl)amino)isonicotinic acid], the IC50 was in the range of 1000 to 10000 nM. With `Cn1nc(-c2ccc(Cl)cc2)cc1Nc1cnccc1C(=O)O` [Compound 24, 3-((3-(4-Chlorophenyl)-1-methyl-1H-pyrazol-5-yl)amino) isonicotinic acid], the IC50 lay in the range of 1 to 100 nM.

With `Cn1nc(-c2cccc(Cl)c2)cc1Nc1cnccc1C(=O)O` [Compound 25, 3-((3-(3-chlorophenyl)-1-methyl-1H-pyrazol-5-yl)amino) isonicotinic acid], the IC50 fell in the range of 1 to 100 nM. In the case of `NCCn1nc(-c2ccccc2)cc1Nc1cnccc1C(=O)O` [Compound 26], the half-inhibitory concentration (IC50) lay in the range of 1000 to 10000 nM.

In the case of `COCCn1nc(-c2ccccc2)cc1Nc1cnccc1C(=O)O` [Compound 27, 3-((1-(2-Methoxyethyl)-3-phenyl-1H-pyrazol-5-yl)amino) isonicotinic acid], the IC50 lay in the range of 100 to 1000 nM. As to `Cc1c(Nc2cnccc2C(=O)O)cnn1Cc1ccccc1` [Compound 33, 3-((1-benzyl-5-methyl-1H-pyrazol-4-yl)amino)isonicotinic acid], the IC50 lay in the range of 100 to 1000 nM. As for `CN1CCN(CCn2cc(-c3ccccc3)c(Nc3cnccc3C(=O)O)n2)CC1` [Compound 34, 3-((1-(2-(4-Methylpiperazin-1-yl)ethyl)-4-phenyl-1H-pyrazol-3-yl)amino)isonicotinic acid], the figure is 10000 to 100000 nM; as for `CN1CCN(CCn2ncc(-c3ccccc3)c2Nc2cnccc2C(=O)O)CC1` [Compound 35, 3-((1-(2-(4-methylpiperazin-1-yl)ethyl)-4-phenyl-1H-pyrazol-5-yl)amino)isonicotinic acid], 1 to 100 nM. Take `CCn1nc(-c2ccccc2)cc1Nc1cnccc1C(=O)O` [Compound 36, 3-((1-Ethyl-3-phenyl-1H-pyrazol-5-yl)amino)isonicotinic acid]: the IC50 is 1 to 100 nM.

`N[C@H]1CC[C@@H](n2nc(-c3ccccc3)cc2Nc2cnccc2C(=O)O)CC1` [Compound 37, 3-((1-((cis)-4-aminocyclohexyl)-3-phenyl-1H-pyrazol-5-yl)amino)isonicotinic acid]: the IC50 fell in the range of 1000 to 10000 nM.
